Measurements reported in ChEMBL document CHEMBL1201862, “PubChem BioAssay data set” (2004).
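The compound was tested at five concentrations on cells cultured in 96-well plates, with a 48-hour exposure period. At the GI50, growth is halved.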 Calls of active or inactive are those of the source. No stated cut-off is given here; in the data, active = GI50 up to about 1.1 µM and inactive = higher.

What was measured:
Experiment in all cases: NCI tumour cell line growth inhibition, 48 h
786-0 = test system: 786-0
A498 = test system: A498
A549 = test system: A549
ACHN = test system: ACHN
CAKI-1 = test system: CAKI-1
CCRF-CEM = test system: CCRF-CEM
DLD-1 = test system: DLD-1
DMS-114 = test system: DMS-114
DMS-273 = test system: DMS-273
HCC 2998 = test system: HCC 2998
HCT-116 = test system: HCT-116
HCT-15 = test system: HCT-15
HL-60 = test system: HL-60
HOP-62 = test system: HOP-62
HOP-92 = test system: HOP-92
HT-29 = test system: HT-29
IGROV-1 = test system: IGROV-1
K562 = test system: K562
KM12 = test system: KM12
LOX IMVI = test system: LOX IMVI
LXFL 529 = test system: LXFL 529
M14 = test system: M14
M19-MEL = test system: M19-MEL
MOLT-4 = test system: MOLT-4
Malme-3M = test system: Malme-3M
NCI-H226 = test system: NCI-H226
NCI-H23 = test system: NCI-H23
NCI-H460 = test system: NCI-H460
NCI-H522 = test system: NCI-H522
OVCAR-3 = test system: OVCAR-3
OVCAR-4 = test system: OVCAR-4
OVCAR-5 = test system: OVCAR-5
OVCAR-8 = test system: OVCAR-8
RPMI-8226 = test system: RPMI-8226
RXF 393 = test system: RXF 393
SF-268 = test system: SF-268
SF-295 = test system: SF-295
SF-539 = test system: SF-539
SK-MEL-28 = test system: SK-MEL-28
SK-MEL-2 = test system: SK-MEL-2
SK-MEL-5 = test system: SK-MEL-5
SK-OV-3 = test system: SK-OV-3
SN12C = test system: SN12C
SNB-19 = test system: SNB-19
SNB-75 = test system: SNB-75
SNB-78 = test system: SNB-78
SR = test system: SR
SW-620 = test system: SW-620
TK-10 = test system: TK-10
U-251 = test system: U-251
UACC-257 = test system: UACC-257
UACC-62 = test system: UACC-62
UO-31 = test system: UO-31
XF498 = test system: XF498

O=C1C2=C(N[C@@H](c3ccccc3)[C@H](c3ccccc3)N2)C(=O)c2ccccc21
GI50 (786-0): 76.4 µM (inactive)
GI50 (A498): > 100 µM (inactive)
GI50 (A549): > 100 µM (inactive)
GI50 (ACHN): > 100 µM (inactive)
GI50 (CAKI-1): > 100 µM (inactive)
GI50 (CCRF-CEM): > 100 µM (inactive)
GI50 (DLD-1): > 100 µM (inactive)
GI50 (DMS-114): > 100 µM (inactive)
GI50 (DMS-273): > 100 µM (inactive)
GI50 (HCC 2998): > 100 µM (inactive)
GI50 (HCT-116): > 100 µM (inactive)
GI50 (HCT-15): > 100 µM
GI50 (HL-60): > 100 µM (inactive)
GI50 (HOP-62): > 100 µM (inactive)
GI50 (HOP-92): 8.05 µM (inactive)
GI50 (HT-29): > 100 µM (inactive)
GI50 (IGROV-1): > 100 µM (inactive)
GI50 (K562): > 100 µM (inactive)
GI50 (KM12): > 100 µM (inactive)
GI50 (LOX IMVI): > 100 µM (inactive)
GI50 (LXFL 529): > 100 µM (inactive)
GI50 (M14): > 100 µM (inactive)
GI50 (M19-MEL): > 100 µM (inactive)
GI50 (MOLT-4): > 100 µM (inactive)
GI50 (Malme-3M): > 100 µM (inactive)
GI50 (NCI-H226): > 100 µM (inactive)
GI50 (NCI-H23): > 100 µM (inactive)
GI50 (NCI-H460): > 100 µM (inactive)
GI50 (NCI-H522): > 100 µM (inactive)
GI50 (OVCAR-3): > 100 µM (inactive)
GI50 (OVCAR-4): > 100 µM (inactive)
GI50 (OVCAR-5): > 100 µM (inactive)
GI50 (OVCAR-8): > 100 µM (inactive)
GI50 (RPMI-8226): > 100 µM (inactive)
GI50 (RXF 393): > 100 µM (inactive)
GI50 (SF-268): > 100 µM (inactive)
GI50 (SF-295): > 100 µM (inactive)
GI50 (SF-539): > 100 µM (inactive)
GI50 (SK-MEL-28): > 100 µM (inactive)
GI50 (SK-MEL-2): > 100 µM (inactive)
GI50 (SK-MEL-5): > 100 µM (inactive)
GI50 (SK-OV-3): > 100 µM (inactive)
GI50 (SN12C): > 100 µM (inactive)
GI50 (SNB-19): > 100 µM (inactive)
GI50 (SNB-75): 51.8 µM (inactive)
GI50 (SNB-78): > 100 µM (inactive)
GI50 (SR): > 100 µM (inactive)
GI50 (SW-620): > 100 µM (inactive)
GI50 (TK-10): > 100 µM (inactive)
GI50 (U-251): > 100 µM (inactive)
GI50 (UACC-257): > 100 µM (inactive)
GI50 (UACC-62): > 100 µM (inactive)
GI50 (UO-31): > 100 µM (inactive)
GI50 (XF498): > 100 µM (inactive)
